Measured values published in US9340535B2, “N-[5-(Aminosulfony1)-4-methyl-1,3-thiazol-2-yl]-N-methyl-2-[4-(2-pyridinyl)phenyl]acetamide mesylate monohydrate” (AiCuris GmbH & Co. KG, priority 2011, dated 2016).
In brackets after ≈: the same amount, converted by molar mass. Read-outs that look alike come from different tables or passages of the source.

How the values were obtained:
[1] = Crystallinity by X-ray diffraction, microscopy; type: physicochemical; settings: for Crystallinity: X-ray diffraction, microscopy
[2] = Water solubility, solubility screening; settings: for Water solubility: Solubility screening
[3] = Stability to dissociation: stirring for one week at room temperature
[4] = Stability to decomposition: storage at 90° C. for one week
[5] = Thermal analysis and polymorphic stability (DSC, TGA); type: physicochemical; settings: for DSC: Differential Scanning Calorimetry; for TGA: Thermogravimetric Analysis
Protocol: Polymorphism refers to the ability of a solid material to exist in more than one crystal structure or solid form.
Upon mild heating (about 50° C. to 60° C.), the water content is reduced which would make these salts and the free base form extremely difficult to handle and to process during production and formulation. In contrast the hydrate of the mono mesylate salt is thermally stable and polymorphic stable at much higher temperatures of considerably above 100° C. as judged by TGA.
Moreover, exactly one mol equivalent water is incorporated into the crystal structure wherein the hydrogen atoms of the water molecule form hydrogen bridges with oxygen atoms of two different mesylate molecules. This well-defined position in the crystal lattice (see FIG. 3) is verified by the fact that water is released from the crystal only at high temperature, starting at 160° C.

[6] = Exposure in repeated dose 13-week toxicity study (free base); settings: rat, in vivo, rats; for AUC(0-t): read-out: AUC(0-24)
Protocol: The exposure of rats to N-[5-(aminosulfonyl)-4-methyl-1,3-thiazol-2-yl]-N-methyl-2-[4-(2-pyridinyl)phenyl]acetamide in a repeated dose 13-week toxicity study performed with the free base N-[5-(aminosulfonyl)-4-methyl-1,3-thiazol-2-yl]-N-methyl-2-[4-(2-pyridinyl)phenyl]acetamide (free base) was compared to the exposures observed in a 26-week repeated dose toxicity study performed with the mesylate monohydrate. In both studies, the test items were administered as 0.5% (w/v) tylose suspensions, and the concentrations were adjusted to the equivalents of free base N-[5-(aminosulfonyl)-4-methyl-1,3-thiazol-2-yl]-N-methyl-2-[4-(2-pyridinyl)phenyl]acetamide.

[7] = female, 10 mg/kg/day, F, 10 mg/kg/day, day 1, 13-week toxicity study
[8] = female, 50 mg/kg/day, F, 50 mg/kg/day, day 1, 13-week toxicity study
[9] = female, 250 mg/kg/day, F, 250 mg/kg/day, day 1, 13-week toxicity study
[10] = male, 10 mg/kg/day, M, 10 mg/kg/day, day 1, 13-week toxicity study
[11] = male, 50 mg/kg/day, M, 50 mg/kg/day, day 1, 13-week toxicity study
[12] = male, 250 mg/kg/day, M, 250 mg/kg/day, day 1, 13-week toxicity study

Q: With `Cc1nc(N(C)C(=O)Cc2ccc(-c3ccccn3)cc2)sc1S(N)(=O)=O.Cl` [1xHCl] as the molecule, how does the “Crystallinity of the hydrate during storage” value ([1]; during storage) read?
A: decrease of crystallinity

Q: And the Water solubility [2]?
A: 39.4 mg/100 mL

Q: And the Stability to dissociation [3]?
A: ++

Q: What about the Stability to decomposition [4] of the same molecule?
A: ++

Q: What about the “Thermal and polymorphic stability of hydrates (in words)” value (shortened to “Thermal and polymorphic stability”) [5] of the same molecule?
A: low thermal and low polymorphic stability

Q: And the “Thermal stability of hydrate” value [5]?
A: labile

Q: What about the DSC [5] of the same molecule?
A: loss of water before melting

Q: And the TGA [5]?
A: 2.1%

Q: For `Cc1ccc(S(=O)(=O)O)cc1.Cc1nc(N(C)C(=O)Cc2ccc(-c3ccccn3)cc2)sc1S(N)(=O)=O` [1xTsOH], which Crystallinity [1] is on record?
A: +

Q: And the Water solubility [2]?
A: 50 mg/100 mL

Q: What about the Stability to dissociation [3] of the same molecule?
A: ++

Q: And the Stability to decomposition [4]?
A: −

Q: What about the “Thermal stability of hydrate” value [5] of the same molecule?
A: labile

Q: What about the DSC [5] of the same molecule?
A: loss of water before melting

Q: What about the TGA [5] of the same molecule?
A: 5.9%

Q: What about the “Thermal and polymorphic stability” value ([5]; listed as monotosylate) of the same molecule?
A: low thermal stability

Q: And the “Thermal and polymorphic stability” value ([5]; listed as tosylate)?
A: low thermal and low polymorphic stability

Q: For `Cc1nc(N(C)C(=O)Cc2ccc(-c3ccccn3)cc2)sc1S(N)(=O)=O` [Free base, N-[5-(aminosulfonyl)-4-methyl-1,3-thiazol-2-yl]-N-methyl-2-[4-(2-pyridinyl)phenyl]acetamide], which Crystallinity [1] is on record?
A: +

Q: And the solubility ([2]; water)?
A: 2 µg/mL (≈ 4.97 µM)

Q: And the Stability to decomposition [4]?
A: ++

Q: What about the Cmax [6, 7] of the same molecule?
A: 15.3 µg/mL

Q: And the AUC(0-t) [6, 7]?
A: 159 µg·h/mL

Q: And the AUC(0-t) ([6]; female, 10 mg/kg/day, F, 10 mg/kg/day, week 13, 13-week toxicity study)?
A: 211 µg·h/mL

Q: What about the Cmax ([6]; female, 10 mg/kg/day, F, week 13, 13-week toxicity study) of the same molecule?
A: 25.8 µg/mL

Q: And the Cmax [6, 8]?
A: 35.3 µg/mL

Q: And the AUC(0-t) [6, 8]?
A: 409 µg·h/mL

Q: And the AUC(0-t) ([6]; female, 50 mg/kg/day, F, 50 mg/kg/day, week 13, 13-week toxicity study)?
A: 455 µg·h/mL

Q: And the Cmax ([6]; female, 50 mg/kg/day, F, week 13, 13-week toxicity study)?
A: 40.5 µg/mL

Q: And the Cmax [6, 9]?
A: 68.9 µg/mL

Q: What about the AUC(0-t) [6, 9] of the same molecule?
A: 966 µg·h/mL

Q: What about the AUC(0-t) ([6]; female, 250 mg/kg/day, F, 250 mg/kg/day, week 13, 13-week toxicity study) of the same molecule?
A: 1170 µg·h/mL

Q: What about the Cmax ([6]; female, 250 mg/kg/day, F, week 13, 13-week toxicity study) of the same molecule?
A: 83 µg/mL

Q: What about the Cmax [6, 10] of the same molecule?
A: 13.3 µg/mL

Q: What about the AUC(0-t) [6, 10] of the same molecule?
A: 87.9 µg·h/mL

Q: What about the AUC(0-t) ([6]; male, 10 mg/kg/day, M, 10 mg/kg/day, week 13, 13-week toxicity study) of the same molecule?
A: 133 µg·h/mL

Q: And the Cmax ([6]; male, 10 mg/kg/day, M, week 13, 13-week toxicity study)?
A: 15 µg/mL

Q: And the Cmax [6, 11]?
A: 30.6 µg/mL

Q: And the AUC(0-t) [6, 11]?
A: 248 µg·h/mL

Q: What about the AUC(0-t) ([6]; male, 50 mg/kg/day, M, 50 mg/kg/day, week 13, 13-week toxicity study) of the same molecule?
A: 332 µg·h/mL

Q: What about the Cmax ([6]; male, 50 mg/kg/day, M, week 13, 13-week toxicity study) of the same molecule?
A: 30 µg/mL

Q: What about the Cmax [6, 12] of the same molecule?
A: 53.9 µg/mL

Q: What about the AUC(0-t) [6, 12] of the same molecule?
A: 567 µg·h/mL

Q: What about the AUC(0-t) ([6]; male, 250 mg/kg/day, M, 250 mg/kg/day, week 13, 13-week toxicity study) of the same molecule?
A: 661 µg·h/mL

Q: What about the Cmax ([6]; male, 250 mg/kg/day, M, week 13, 13-week toxicity study) of the same molecule?
A: 62.8 µg/mL

Q: And the “Thermal and polymorphic stability” value [5]?
A: low thermal stability

Q: And the “Thermal stability of hydrate” value [5]?
A: labile

Q: What about the DSC [5] of the same molecule?
A: loss of water before melting

Q: What about the TGA [5] of the same molecule?
A: 8.8%

Q: What about the “Thermal and polymorphic stability” value ([5]; listed as free base form) of the same molecule?
A: low thermal and low polymorphic stability
